# Where two headings read alike, the source gives them in different places. Marks after values point to notes of the source that are not given here.
# Columns and labels:
# [1] = In vitro partitioning experiments in two-phase dissolution apparatus; assay type: physicochemical
# [2] = assay type: physicochemical; conditions: sodium acetate buffer 50 mM, pH 4.5, isotonic; unpublished data
# [3] = cited from earlier work
# [4] = cited from earlier work; for Log D: measured value
# [5] = measured value; cited from earlier work
# [6] = measured value; cited from earlier work; remark: listed apart in the source
smiles,measurement,setting,value
CC(C)Cc1ccc(C(C)C(=O)O)cc1 (stereo not drawn) [Ibuprofen],Best-fit PI for all conditions,"[1]; Apparatus 1, experiments 3–6 (pH 1.5–6.3), 77 rpm, range of 2.2–4.8 × 10^−3",3000 ×10⁻⁶ cm/s
same,PI × 10^4 (best fit),"[1]; Exp. 3, Fig 3(a), Apparatus 1, pH 1.5, 77 rpm, A/Va 0.42 cm^−1, MT/Va 16.7 μg/ml",23.71 cm/s × 10^4
same,PI × 10^4 (best fit),"[1]; Exp. 4, Fig 3(b), Apparatus 1, pH 4.3, 77 rpm, A/Va 0.42 cm^−1, MT/Va 16.7 μg/ml",30.06 cm/s × 10^4
same,PI × 10^4 (best fit),"[1]; Exp. 5, Fig 3(c), Apparatus 1, pH 4.4, 77 rpm, A/Va 0.42 cm^−1, MT/Va 16.7 μg/ml",37.52 cm/s × 10^4
same,PI × 10^4 (best fit),"[1]; Exp. 6, Fig 3(d), Apparatus 1, pH 6.3, 77 rpm, A/Va 0.42 cm^−1, MT/Va 16.7 μg/ml",30.81 cm/s × 10^4
same,PI × 10^4 (best fit),"[1]; Exp. 7, Fig 4(a), Apparatus 2, pH 5.0, 75 rpm, A/Va 0.30 cm^−1, MT/Va 25.0 μg/ml",19.08 cm/s × 10^4
same,PI × 10^4 (best fit),"[1]; Exp. 8, Fig 4(b), Apparatus 2, pH 6.8, 75 rpm, A/Va 0.30 cm^−1, MT/Va 50.0 μg/ml",28.73 cm/s × 10^4
same,PI × 10^4 (best fit),"[1]; Exp. 9, Fig 4(c), Apparatus 2, pH 6.8, 75 rpm, A/Va 0.30 cm^−1, MT/Va 25.0 μg/ml",26.85 cm/s × 10^4
same,"Dissolution rates of particles, buffer versus buffer saturated with 1-octanol",[2],no difference
same,Absorbed in humans,[3]; in vivo,> 99%
Cc1nccn1CC1CCc2c(c3ccccc3n2C)C1=O (stereo not drawn) [Ondansetron],"Fa (fraction absorbed in vivo), actual","[3]; humans, oral solutions",1
CN1C(C(=O)Nc2ccccn2)=C(O)c2ccccc2S1(=O)=O [Piroxicam],Log D,[4]; pH 1.2,pH 1.2: 0.92^f
same,Apparent partition coefficient,"[4]; pH 7.5, 37 °C, ref Yazdanian et al. 27",0.8
same,Log D,[4]; pH 7.5,pH 7.5: 0.8^g
same,Intrinsic solubility at 37 °C,[5],6.6 × 10^−5f M
same,pKa at 37 °C (basic),[6],2.3 (basic)^c
CCCC(CCC)C(=O)O [Valproic acid],"Fa (fraction absorbed in vivo), actual","[3]; humans, oral solutions",1
same,"ka × 10^4 (first-order absorption rate constant), decon.","[3]; humans, oral solutions, printed value = ka × 10^4",11.5 s^−1

# Source: publication PMC4503256 (Biopharmaceutics & drug disposition, 2012)
